A word on the IC50: it is the concentration that inhibits the measured activity by half.

SMILES strings stand for the structures.

In the first test the test system is glycolysis in HT1080 cells. The experiment in a line: Glycolysis assay: oligomycin plus compound, cellular ATP by Cell Titer Glo. It counts as cell-based. The conditions noted are these: 10 μM oligomycin, one hour, class symbols. An outline of the steps:
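Confluent HT1080 cells treated 1 h with compound plus 10 μM oligomycin to block mitochondrial ATP, so remaining ATP reflects glycolysis. Cellular ATP read by Cell Titer-Glo luminescence; IC50 derived from dose-response curves.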
For orientation: In ATP-based viability assays light output follows the ATP content of the culture.
Regarding `O=C(Nc1cccc(-c2nc(Nc3ccc(-c4cn[nH]c4)cc3)c3sccc3n2)c1)c1cccnc1` [Example 178, N-(3-(4-((4-(1H-pyrazol-4-yl)phenyl)amino)thieno[3,2-d]pyrimidin-2-yl)phenyl)nicotinamide], the IC50 lay in the range of 10 to 100 nM.

The same test, now with this note: Homo sapiens, HT-1080, 1 h, 10 μM oligomycin, one hour, class symbols.
Consider `CC(C)C(=O)N1CCc2nc(-c3cccc(OCC(=O)NC(C)(C)C)c3)nc(Nc3ccc(-c4cn[nH]c4)cc3)c2C1` [Example 151, 2-(3-(4-((4-(1H-pyrazol-4-yl)phenyl)amino)-6-isobutyryl-5,6,7,8-tetrahydropyrido[4,3-d]pyrimidin-2-yl)phenoxy)-N-(tert-butyl)acetamide], for which the half-inhibitory concentration (IC50) lay in the range of 10 to 100 nM.
On to `CC(C)C(=O)N1CCc2nc(-c3cccc(OCC(=O)NC4CCC4)c3)nc(Nc3ccc(-c4cn[nH]c4)cc3)c2C1` [Example 152, 2-(3-(4-((4-(1H-pyrazol-4-yl)phenyl)amino)-6-isobutyryl-5,6,7,8-tetrahydropyrido[4,3-d]pyrimidin-2-yl)phenoxy)-N-cyclobutylacetamide], for which the IC50 lay in the range of 10 to 100 nM.
On the same count and under the same terms, the figure for `CCC(CC)NC(=O)COc1cccc(-c2nc3c(c(Nc4ccc(-c5cn[nH]c5)cc4)n2)CN(C(=O)C(C)C)CC3)c1` [Example 153, 2-(3-(4-((4-(1H-pyrazol-4-yl)phenyl)amino)-6-isobutyryl-5,6,7,8-tetrahydropyrido[4,3-d]pyrimidin-2-yl)phenoxy)-N-(pentan-3-yl)acetamide] is 10 to 100 nM; for `CC(C)CNC(=O)COc1cccc(-c2nc3c(c(Nc4ccc(-c5cn[nH]c5)cc4)n2)CN(C(=O)C(C)C)CC3)c1` [Example 154, 2-(3-(4-((4-(1H-pyrazol-4-yl)phenyl)amino)-6-isobutyryl-5,6,7,8-tetrahydropyrido[4,3-d]pyrimidin-2-yl)phenoxy)-N-isobutylacetamide] it is 10 to 100 nM; for `CC(C)C(=O)N1CCc2nc(-c3cccc(OCC(=O)NCC(C)(C)C)c3)nc(Nc3ccc(-c4cn[nH]c4)cc3)c2C1` [Example 155, 2-(3-(4-((4-(1H-pyrazol-4-yl)phenyl)amino)-6-isobutyryl-5,6,7,8-tetrahydropyrido[4,3-d]pyrimidin-2-yl)phenoxy)-N-neopentylacetamide] it is 10 to 100 nM.
Regarding `CCC(C)(C)NC(=O)COc1cccc(-c2nc3c(c(Nc4ccc(-c5cn[nH]c5)cc4)n2)CN(C(=O)C(C)C)CC3)c1` [Example 156, 2-(3-(4-((4-(1H-pyrazol-4-yl)phenyl)amino)-6-isobutyryl-5,6,7,8-tetrahydropyrido[4,3-d]pyrimidin-2-yl)phenoxy)-N-(tert-pentyl)acetamide], the IC50 fell in the range of 10 to 100 nM.
Same read-out and setting: next, `O=C(COc1cccc(-c2nc3c(c(Nc4ccc(-c5cn[nH]c5)cc4)n2)CNCC3)c1)NC1CCC1` [Example 157, 2-(3-(4-((4-(1H-pyrazol-4-yl)phenyl)amino)-5,6,7,8-tetrahydropyrido[4,3-d]pyrimidin-2-yl)phenoxy)-N-cyclobutylacetamide]: 101 to 250 nM.
On the same count and under the same terms, the figure for `CC(C)N1CCc2nc(-c3cccc(OCC(=O)NC4CCC4)c3)nc(Nc3ccc(-c4cn[nH]c4)cc3)c2C1` [Example 159, 2-(3-(4-((4-(1H-pyrazol-4-yl)phenyl)amino)-6-isopropyl-5,6,7,8-tetrahydropyrido[4,3-d]pyrimidin-2-yl)phenoxy)-N-cyclobutylacetamide] is 251 to 500 nM.
On the same count and under the same terms, the figure for `CCN1CCc2nc(-c3cccc(OCC(=O)NC4CCC4)c3)nc(Nc3ccc(-c4cn[nH]c4)cc3)c2C1` [Example 160, 2-(3-(4-((4-(1H-pyrazol-4-yl)phenyl)amino)-6-ethyl-5,6,7,8-tetrahydropyrido[4,3-d]pyrimidin-2-yl)phenoxy)-N-cyclobutylacetamide] is 251 to 500 nM; for `CC(C)CNC(=O)COc1cccc(-c2nc3c(c(Nc4ccc(-c5cn[nH]c5)cc4)n2)CNCC3)c1` [Example 161, 2-(3-(4-((4-(1H-pyrazol-4-yl)phenyl)amino)-5,6,7,8-tetrahydropyrido[4,3-d]pyrimidin-2-yl)phenoxy)-N-isobutylacetamide] it is 251 to 500 nM.
As to `CCN1CCc2nc(-c3cccc(OCC(=O)NCC(C)C)c3)nc(Nc3ccc(-c4cn[nH]c4)cc3)c2C1` [Example 164, 2-(3-(4-((4-(1H-pyrazol-4-yl)phenyl)amino)-6-ethyl-5,6,7,8-tetrahydropyrido[4,3-d]pyrimidin-2-yl)phenoxy)-N-isobutylacetamide], the IC50 lay in the range of 251 to 500 nM.
Regarding `CCC(C)(C)NC(=O)COc1cccc(-c2nc(Nc3ccc(-c4cn[nH]c4)cc3)c3ccncc3n2)c1` [Example 165, 2-(3-(4-((4-(1H-pyrazol-4-yl)phenyl)amino)pyrido[3,4-d]pyrimidin-2-yl)phenoxy)-N-(tert-pentyl)acetamide], the IC50 was in the range of 10 to 100 nM.
With `CCC(C)(C)NC(=O)COc1cccc(-c2nc3c(c(Nc4ccc(-c5cn[nH]c5)cc4)n2)COCC3)c1` [Example 166, 2-(3-(4-((4-(1H-pyrazol-4-yl)phenyl)amino)-7,8-dihydro-5H-pyrano[4,3-d]pyrimidin-2-yl)phenoxy)-N-(tert-pentyl)acetamide], the IC50 was 10 to 100 nM.
Same read-out and setting: next, `CC(C)(C)CNC(=O)COc1cccc(-c2nc3c(c(Nc4ccc(-c5cn[nH]c5)cc4)n2)CNCC3)c1` [Example 167, 2-(3-(4-((4-(1H-pyrazol-4-yl)phenyl)amino)-5,6,7,8-tetrahydropyrido[4,3-d]pyrimidin-2-yl)phenoxy)-N-neopentylacetamide]: 10 to 100 nM.
Same read-out and setting: the figure for `CN1CCc2nc(-c3cccc(OCC(=O)NCC(C)(C)C)c3)nc(Nc3ccc(-c4cn[nH]c4)cc3)c2C1` [Example 168, 2-(3-(4-((4-(1H-pyrazol-4-yl)phenyl)amino)-6-methyl-5,6,7,8-tetrahydropyrido[4,3-d]pyrimidin-2-yl)phenoxy)-N-neopentylacetamide] is 101 to 250 nM; for `CCN1CCc2nc(-c3cccc(OCC(=O)NCC(C)(C)C)c3)nc(Nc3ccc(-c4cn[nH]c4)cc3)c2C1` [Example 170, 2-(3-(4-((4-(1H-pyrazol-4-yl)phenyl)amino)-6-ethyl-5,6,7,8-tetrahydropyrido[4,3-d]pyrimidin-2-yl)phenoxy)-N-neopentylacetamide] it is 101 to 250 nM.
In the case of `CC(C(=O)Nc1cccc(-c2nc3c(c(Nc4ccc(-c5cn[nH]c5)cc4)n2)COC3)c1)N1CCOCC1` (centres unmarked) [Example 171, N-(3-(4-((4-(1H-pyrazol-4-yl)phenyl)amino)-5,7-dihydrofuro[3,4-d]pyrimidin-2-yl)phenyl)-2-morpholinopropanamide], the IC50 lay within 501 to 1000 nM.
Still for that read-out and setting: the figure for `CC(C(=O)Nc1cccc(-c2nc(Nc3ccc(-c4cn[nH]c4)cc3)c3occc3n2)c1)N1CCOCC1` (centres unmarked) [Example 172, N-(3-(4-((4-(1H-pyrazol-4-yl)phenyl)amino)furo[3,2-d]pyrimidin-2-yl)phenyl)-2-morpholinopropanamide] is 101 to 250 nM; for `CC(C(=O)Nc1cccc(-c2nc(Nc3ccc(-c4cn[nH]c4)cc3)c3sccc3n2)c1)N1CCOCC1` (centres unmarked) [Example 173, N-(3-(4-((4-(1H-pyrazol-4-yl)phenyl)amino)thieno[3,2-d]pyrimidin-2-yl)phenyl)-2-morpholinopropanamide] it is 251 to 500 nM; for `O=C(Nc1cccc(-c2nc(Nc3ccc(-c4cn[nH]c4)cc3)c3sccc3n2)c1)c1ccncc1` [Example 174, N-(3-(4-((4-(1H-pyrazol-4-yl)phenyl)amino)thieno[3,2-d]pyrimidin-2-yl)phenyl)isonicotinamide] it is 501 to 1000 nM.
Same read-out and setting: next, `O=C(Nc1cccc(-c2nc3c(c(Nc4ccc(-c5cn[nH]c5)cc4)n2)COC3)c1)c1ccncc1` [Example 175, N-(3-(4-((4-(1H-pyrazol-4-yl)phenyl)amino)-5,7-dihydrofuro[3,4-d]pyrimidin-2-yl)phenyl)isonicotinamide]: 501 to 1000 nM.
The same measure, in the same setting: next, `O=C(Nc1cccc(-c2nc(Nc3ccc(-c4cn[nH]c4)cc3)c3sccc3n2)c1)c1ccccn1` [Example 176, N-(3-(4-((4-(1H-pyrazol-4-yl)phenyl)amino)thieno[3,2-d]pyrimidin-2-yl)phenyl)picolinamide]: greater than 1000 nM; `O=C(Nc1cccc(-c2nc3c(c(Nc4ccc(-c5cn[nH]c5)cc4)n2)COC3)c1)c1ccccn1` [Example 177, N-(3-(4-((4-(1H-pyrazol-4-yl)phenyl)amino)-5,7-dihydrofuro[3,4-d]pyrimidin-2-yl)phenyl)picolinamide]: 10 to 100 nM.
In the case of `O=C(COc1cccc(-c2nc(Nc3ccc(-c4cn[nH]c4)cc3)c3sccc3n2)c1)NC1CC(F)(F)C1` [Example 179, 2-(3-(4-((4-(1H-pyrazol-4-yl)phenyl)amino)thieno[3,2-d]pyrimidin-2-yl)phenoxy)-N-(3,3-difluorocyclobutyl)acetamide], the 50% inhibitory concentration (IC50) was 251 to 500 nM.
Still for that read-out and setting: next, `O=C(COc1cccc(-c2nc(Nc3ccc(-c4cn[nH]c4)cc3)c3sccc3n2)c1)NC1CCCCC1` [Example 180, 2-(3-(4-((4-(1H-pyrazol-4-yl)phenyl)amino)thieno[3,2-d]pyrimidin-2-yl)phenoxy)-N-cyclohexylacetamide]: 101 to 250 nM; `CCC(CC)NC(=O)COc1cccc(-c2nc(Nc3ccc(-c4cn[nH]c4)cc3)c3sccc3n2)c1` [Example 181, 2-(3-(4-((4-(1H-pyrazol-4-yl)phenyl)amino)thieno[3,2-d]pyrimidin-2-yl)phenoxy)-N-(pentan-3-yl)acetamide]: 251 to 500 nM.

The same test, now with this note: Homo sapiens, HT-1080, 1 h, 10 μM oligomycin, one hour, number printed instead of class.
Consider `CC(C)C(=O)N1CCc2nc(-c3cccc(OCC(=O)NC4CCCC4)c3)nc(Nc3ccc(-c4cn[nH]c4)cc3)c2C1` [Example 150, 2-(3-(4-((4-(1H-pyrazol-4-yl)phenyl)amino)-6-isobutyryl-5,6,7,8-tetrahydropyrido[4,3-d]pyrimidin-2-yl)phenoxy)-N-cyclopentylacetamide], for which the half-maximal inhibitory concentration (IC50) amounted to 28 nM.
Still for that read-out and setting: the figure for `CC(C)N1CCc2nc(-c3cccc(OCC(=O)NCC(C)(C)C)c3)nc(Nc3ccc(-c4cn[nH]c4)cc3)c2C1` [Example 169, 2-(3-(4-((4-(1H-pyrazol-4-yl)phenyl)amino)-6-isopropyl-5,6,7,8-tetrahydropyrido[4,3-d]pyrimidin-2-yl)phenoxy)-N-neopentylacetamide] is 290 nM.

For the origin of these results see US10273248B2, “Glucose uptake inhibitors” (Kadmon Corporation LLC, priority 2015, dated 2019).
